Assay results reported in paper PMC12292992, “Betulinic Acid ω-Triphenylphosphonium Alkyl Esters: Antiproliferative Activities and In Silico Pharmacokinetic Profiles” (Biomedicines, 2025).

Experiments:
[1] = test system: MRC-5 normal human lung fibroblasts; test: MTT cell viability assay, normal lung fibroblasts; assay type: cell-based; details: MRC5, MRC-5, 72 h
Description: (§1) Human cell lines were obtained from the American Type Culture Collection (ATCC, Manassas, VA, USA). Normal lung MRC-5 fibroblasts (ATCC® CCL-171™), SK-MES-1 lung cancer cells (ATCC® HTB-58™), and J82 bladder carcinoma cells (ATCC® HTB-1™) were grown as monolayers in Eagle’s minimum essential medium (MEM) with Earle’s salts, 2 mM L-glutamine, and 1.5 g/L sodium bicarbonate. Gastric epithelial AGS cells (ATCC® CRL-1739™) were grown as monolayers in Ham’s F-12 medium containing 1 mM L-glutamine and 1.5 g/L sodium bicarbonate. Promyelocytic leukemia HL-60 (ATCC® CCL-240™), colorectal adenocarcinoma HCT-15 (ATCC® CCL-225™), metastatic colorectal COLO205 (ATCC® CCL-222™), and breast cancer AU565 (ATCC® CRL-2351™, ER^−-HER2/neu^+) cells were grown in suspension in an RPMI-1640 medium containing 1 mM sodium pyruvate and 2.0 g/L sodium bicarbonate. Human breast cancer MCF-7 (ATCC® HTB-22™, ER^+-HER2/neu^−) and MDA-MB-231 (ATCC® HTB-26™, ER^−-HER2/neu^−) cells were grown as monolayers in DMEM medium. All media were supplemented with 10% heat-inactivated fetal bovine serum (HI-FBS), 100 IU/mL penicillin G, and 100 µg/mL streptomycin. Cells were maintained at 37 °C in a humidified incubator with 5% CO2.
(§2) MRC-5, SK-MES-1, J82, and AGS cells were seeded at a density of 5 × 10^4 cells/mL in 96-well plates. COLO205, HCT-15, MCF-7, MDA-MB-231, and AU565 cells were seeded at 1 × 10^5 cells/mL, while HL-60 cells were plated at 3 × 10^5 cells/mL. A volume of 100 µL of the cell suspension was added to each well. After 24 h, the compounds were added in increasing concentrations (ranging from 0 to 100 µM), and cells were incubated for 24, 48, or 72 h. The compounds were dissolved in DMSO and diluted in complete medium to a final concentration of 0.5% DMSO. Cells treated with 0.5% DMSO in complete medium were used as viability controls (100%). Etoposide (98% purity, Sigma-Aldrich, St. Louis, MO, USA) was used as the reference compound. Each concentration was tested in quadruplicate, and each experiment was performed twice using independent cell preparations. At the end of the incubation period, cell viability was determined using the MTT reduction assay. The results were transformed into percentages relative to controls, and IC50 values were obtained graphically from the dose–response curves. Results are presented as IC50 values ± standard deviation (SD).

AGS cells = test: MTT cell viability assay, gastric adenocarcinoma; assay type: cell-based; details: Homo sapiens, 72 h
Description: as §1, §2

SK-MES-1 cells = test: MTT cell viability assay, lung cancer; assay type: cell-based; details: Homo sapiens, SK-MES-1, 72 h
Description: as §1, §2

J82 cells = test: MTT cell viability assay, bladder carcinoma; assay type: cell-based; details: Homo sapiens, J82, 72 h
Description: as §1, §2

HL-60 cells = test: MTT cell viability assay, leukemia; assay type: cell-based; details: Homo sapiens, HL-60, 72 h
Description: as §1, §2

HCT-15 cells = test: MTT cell viability assay, colorectal carcinoma; assay type: cell-based, human; details: Homo sapiens
Description: as §1, §2

COLO205 cells = test: MTT cell viability assay, metastatic colorectal cancer; assay type: cell-based, human; details: Homo sapiens, COLO 205
Description: as §1, §2

AU565 cells = test: MTT cell viability assay, mammary carcinoma; assay type: cell-based, human; details: Homo sapiens
Description: as §1, §2

[2] = parameters: method as in PMID 17576843, PMID 17638699; details: oral administration, healthy individuals and patients with HIV, cited from earlier work
MCF-7 cells [3] = test: MTT cell viability assay, mammary carcinoma; assay type: cell-based; details: Homo sapiens, MCF7
Description: as §1, §2

MDA-MB-231 cells = test: MTT cell viability assay, mammary carcinoma; assay type: cell-based; details: Homo sapiens
Description: as §1, §2

MCF-7 cells [4] = test: Oxygen consumption assay (Clark-type electrode); assay type: cell-based, human; details: MCF-7, 10 and 20 µM
Description: Oxygen consumption of the tumor cells was measured polarographically using a Clark-type electrode (Yellow Springs Instruments, Dayton, OH, USA) placed horizontally in a cell of 0.6 mL volume at 25 °C, coupled to a YSI monitor (model 53). The electrode signal was recorded in a computer connected to a DI-148U module with a USB interface. Data were acquired using the Windaq Acquisition Waveform Recorder software v3.36 (DataQ Instruments, Akron, OH, USA). The test medium used contained 150 mM NaCl, 5 mM KCl, and 1 mM Tris-HCl, and pH 7.4. 5 mM glutamine was added with the cells and test compounds. Oxygen consumption was recorded when the cell aliquots (6 × 10^6 cells) were added. Oligomycin (1.5 μg/mL) was added as an inhibitor of the Fo subunit of ATP synthase prior to the incorporation of the compounds under study. FCCP (carbonyl cyanide-p-trifluoromethoxyphenylhydrazone, 50 nM) was used prior to the addition of test compounds as an internal control to calibrate the electrode system and confirm the maximum uncoupling capacity of the cells.

human cancer cell lines = test: MTT cell viability, summary over the human cancer cell lines; assay type: cell-based; details: nine human cancer cell lines, relative to BA, summary statement
Description: as §1, §2

| Compound | IC50 [1] | IC50 (AGS cells) | IC50 (SK-MES-1 cells) | IC50 (J82 cells) | IC50 (HL-60 cells) | IC50 (HCT-15 cells; HCT-15, 24 h) | IC50 (HCT-15 cells; HCT-15, 48 h) | IC50 (HCT-15 cells; HCT-15, 72 h) | IC50 (COLO205 cells; COLO205, 24 h) | IC50 (COLO205 cells; COLO205, 48 h) | IC50 (COLO205 cells; COLO205, 72 h) | IC50 (AU565 cells; AU565, 24 h) | IC50 (AU565 cells; AU565, 48 h) | IC50 (MCF-7 cells [3]; MCF-7, 24 h) | IC50 (MCF-7 cells [3]; MCF-7, 48 h) | IC50 (MDA-MB-231 cells; MDA-MB-231, 24 h) | IC50 (MDA-MB-231 cells; MDA-MB-231, 48 h) | mitochondrial uncoupling effect (MCF-7 cells [4]) | increase in potency (human cancer cell lines) | further results |
| --- | --- | --- | --- | --- | --- | --- | --- | --- | --- | --- | --- | --- | --- | --- | --- | --- | --- | --- | --- | --- |
| C=C(C)[C@@H]1CC[C@]2(C(=O)O)CC[C@]3(C)[C@H](CC[C@@H]4[C@@]5(C)CC[C@H](O)C(C)(C)[C@@H]5CC[C@]43C)[C@@H]12 [BA, 3β-hydroxy-lup-20(29)-en-28-oic acid, reference compound] | 56.7 ± 4.3 µM | 14.1 ± 0.5 µM | 44.8 ± 2.7 µM | 32.8 ± 1.7 µM | 21.9 ± 1.5 µM | 43.8 ± 3.64 µM | 9.47 ± 3.1 µM | 3.89 ± 1.3 µM | 97.7 ± 1.02 µM | 74.6 ± 2.87 µM | 34.3 ± 2.58 µM | 33.09 ± 0.17 µM | 9.29 ± 0.98 µM |  |  |  |  |  |  |  |
| C=C(C)[C@@H]1CC[C@]2(C(=O)O)CC[C@]3(C)[C@H](CC[C@@H]4[C@@]5(C)CC[C@H](OC(=O)CC(C)(C)C(=O)O)C(C)(C)[C@@H]5CC[C@]43C)[C@@H]12 [Compound 4, 3-O-(3′,3′-Dimethylsuccinyl)-BA] |  |  |  |  |  |  |  |  |  |  |  |  |  |  |  |  |  |  |  | tolerance ([2]; all studied doses): good tolerance at all studied doses; half-life [2]: long half-life; oral absorption [2]: rapid oral absorption |
| C=C(C)[C@@H]1CC[C@]2(C(=O)OCCCCC[P+](c3ccccc3)(c3ccccc3)c3ccccc3)CC[C@]3(C)C(CCC4[C@@]5(C)CC[C@H](O)C(C)(C)C5CC[C@]43C)C12 (stereo partly drawn) [BA-C5-TPP^+Br^−, 5-Triphenylphosphoniopentyl 3β-hydroxylup-20(29)-en-28-oate bromide] | 0.83 ± 0.02 µM | 0.77 ± 0.08 µM | 0.47 ± 0.04 µM | 1.22 ± 0.01 µM | 0.63 ± 0.05 µM | 5.17 ± 1.32 µM | 1.93 ± 0.36 µM | 1.93 ± 0.32 µM | 4.32 ± 2.4 µM | 1.62 ± 1.15 µM | 1.61 ± 0.02 µM | 5.91 ± 0.08 µM | 1.02 ± 0.18 µM | 8.68 ± 1.27 µM | 1.77 ± 0.4 µM | 5.5 ± 0.6 µM | 2.53 ± 0.65 µM | concentration-dependent uncoupling effect, though less pronounced than that of BA-C4-TPP^+Br^− | over 100 fold |  |
| C=C(C)[C@@H]1CC[C@]2(C(=O)OCCCCCC[P+](c3ccccc3)(c3ccccc3)c3ccccc3)CC[C@]3(C)C(CCC4[C@@]5(C)CC[C@H](O)C(C)(C)C5CC[C@]43C)C12 (stereo partly drawn) [BA-C6-TPP^+Br^−, 6-Triphenylphosphoniohexyl 3β-hydroxylup-20(29)-en-28-oate bromide] | 1.35 ± 0.1 µM | 1.27 ± 0.02 µM | 0.68 ± 0.01 µM | 1.71 ± 0.05 µM | 0.91 ± 0.01 µM | 9.04 ± 2.8 µM | 2.89 ± 0.24 µM | 2.4 ± 0.13 µM | 4.87 ± 1.43 µM | 0.84 ± 0.39 µM | 0.97 ± 0.29 µM | 6.37 ± 0.31 µM | 1.33 ± 0.12 µM | 7.69 ± 1.32 µM | 4.62 ± 0.53 µM | 7.28 ± 0.53 µM | 2.66 ± 0.08 µM | not seen at the tested concentrations | over 100 fold |  |
| COc1cc([C@@H]2c3cc4c(cc3[C@@H](O[C@@H]3O[C@@H]5CO[C@@H](C)O[C@H]5[C@H](O)[C@H]3O)[C@H]3COC(=O)[C@H]23)OCO4)cc(OC)c1O [Etoposide, reference compound] | 3.96 ± 0.21 µM | 0.46 ± 0.04 µM | 2.61 ± 0.01 µM | 2.85 ± 0.02 µM | 0.82 ± 0.01 µM |  |  |  |  |  |  |  |  |  |  |  |  |  |  |  |
